Values quoted from earlier work, collected in patent US20060104952A1, “Genomic barrier to viral disease” (priority 2004, published 2006).

Tested on: genes
Conditions: ref 10 (CoQ10 supplementation, human skeletal muscle)

COC1=C(OC)C(=O)C(C/C=C(\C)CC/C=C(\C)CC/C=C(\C)CC/C=C(\C)CC/C=C(\C)CC/C=C(\C)CC/C=C(\C)CC/C=C(\C)CC/C=C(\C)CCC=C(C)C)=C(C)C1=O [coenzyme Q10]
number of genes whose expression is influenced: at least 115 genes
